“And” between values parts separate entries of the source, which are not always exact repeats. Identical values can stand only once. Blank lines part the entries; values can stand above or below the compound they belong to. The source made the active and inactive calls.
Legend:
SUMO E1/E2 = SUMO E1/E2 (Homo sapiens, UniProt P63279+Q9UBE0+Q9UBT2); experiment: SAR analysis of SUMOylation using HTRF in an in-Vitro dose response assay. [Related pubchem assays (depositor defined):AID2006, AID2011, AID2018, AID2069, AID2658]; type: functional
SUMO E1/E2, sequence (Q9UBE0 whole entry): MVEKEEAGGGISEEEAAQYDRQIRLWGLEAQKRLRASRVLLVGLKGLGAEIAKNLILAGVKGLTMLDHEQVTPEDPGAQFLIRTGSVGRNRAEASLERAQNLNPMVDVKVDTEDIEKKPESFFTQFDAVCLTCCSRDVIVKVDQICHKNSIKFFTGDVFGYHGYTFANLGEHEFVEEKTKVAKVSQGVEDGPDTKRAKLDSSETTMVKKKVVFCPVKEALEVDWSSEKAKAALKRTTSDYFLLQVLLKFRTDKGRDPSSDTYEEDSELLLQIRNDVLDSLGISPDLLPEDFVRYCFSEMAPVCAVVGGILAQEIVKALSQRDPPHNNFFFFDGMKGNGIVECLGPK
SUMO E1/E2, sequence (Q9UBT2 whole entry): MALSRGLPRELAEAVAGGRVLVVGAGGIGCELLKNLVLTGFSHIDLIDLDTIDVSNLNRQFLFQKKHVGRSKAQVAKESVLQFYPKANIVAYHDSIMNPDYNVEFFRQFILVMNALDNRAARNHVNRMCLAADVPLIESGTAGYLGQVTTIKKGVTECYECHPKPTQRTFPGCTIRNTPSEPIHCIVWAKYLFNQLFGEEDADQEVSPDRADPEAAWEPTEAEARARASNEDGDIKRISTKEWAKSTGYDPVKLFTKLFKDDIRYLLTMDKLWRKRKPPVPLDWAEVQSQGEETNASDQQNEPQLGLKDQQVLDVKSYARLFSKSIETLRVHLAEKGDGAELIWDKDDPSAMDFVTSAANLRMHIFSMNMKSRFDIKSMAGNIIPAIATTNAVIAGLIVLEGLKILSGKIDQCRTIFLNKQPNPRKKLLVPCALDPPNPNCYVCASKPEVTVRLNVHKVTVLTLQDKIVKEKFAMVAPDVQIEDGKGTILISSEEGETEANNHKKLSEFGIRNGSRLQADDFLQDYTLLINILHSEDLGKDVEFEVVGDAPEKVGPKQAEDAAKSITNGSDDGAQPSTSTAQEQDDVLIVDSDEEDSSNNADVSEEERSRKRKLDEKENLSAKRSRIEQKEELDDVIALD
SUMO E1/E2, sequence (P63279 whole entry): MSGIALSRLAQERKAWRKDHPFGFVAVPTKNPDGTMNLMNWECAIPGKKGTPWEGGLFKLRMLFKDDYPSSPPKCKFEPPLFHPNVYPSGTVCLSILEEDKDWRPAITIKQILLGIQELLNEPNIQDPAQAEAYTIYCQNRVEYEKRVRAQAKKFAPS

[1] = target: T1, Voltage-gated N-type calcium channel alpha-1B subunit/Amyloid beta A4 precursor protein-binding family A member 1 (Homo sapiens, UniProt Q00975+Q02410); experiment: disruptors of Mint-PDZ/N-type channel peptide interaction – biochemical, HTRF, set 2, SAR follow-up (AID 434980); type: functional
T1 sequence (Q00975 whole entry): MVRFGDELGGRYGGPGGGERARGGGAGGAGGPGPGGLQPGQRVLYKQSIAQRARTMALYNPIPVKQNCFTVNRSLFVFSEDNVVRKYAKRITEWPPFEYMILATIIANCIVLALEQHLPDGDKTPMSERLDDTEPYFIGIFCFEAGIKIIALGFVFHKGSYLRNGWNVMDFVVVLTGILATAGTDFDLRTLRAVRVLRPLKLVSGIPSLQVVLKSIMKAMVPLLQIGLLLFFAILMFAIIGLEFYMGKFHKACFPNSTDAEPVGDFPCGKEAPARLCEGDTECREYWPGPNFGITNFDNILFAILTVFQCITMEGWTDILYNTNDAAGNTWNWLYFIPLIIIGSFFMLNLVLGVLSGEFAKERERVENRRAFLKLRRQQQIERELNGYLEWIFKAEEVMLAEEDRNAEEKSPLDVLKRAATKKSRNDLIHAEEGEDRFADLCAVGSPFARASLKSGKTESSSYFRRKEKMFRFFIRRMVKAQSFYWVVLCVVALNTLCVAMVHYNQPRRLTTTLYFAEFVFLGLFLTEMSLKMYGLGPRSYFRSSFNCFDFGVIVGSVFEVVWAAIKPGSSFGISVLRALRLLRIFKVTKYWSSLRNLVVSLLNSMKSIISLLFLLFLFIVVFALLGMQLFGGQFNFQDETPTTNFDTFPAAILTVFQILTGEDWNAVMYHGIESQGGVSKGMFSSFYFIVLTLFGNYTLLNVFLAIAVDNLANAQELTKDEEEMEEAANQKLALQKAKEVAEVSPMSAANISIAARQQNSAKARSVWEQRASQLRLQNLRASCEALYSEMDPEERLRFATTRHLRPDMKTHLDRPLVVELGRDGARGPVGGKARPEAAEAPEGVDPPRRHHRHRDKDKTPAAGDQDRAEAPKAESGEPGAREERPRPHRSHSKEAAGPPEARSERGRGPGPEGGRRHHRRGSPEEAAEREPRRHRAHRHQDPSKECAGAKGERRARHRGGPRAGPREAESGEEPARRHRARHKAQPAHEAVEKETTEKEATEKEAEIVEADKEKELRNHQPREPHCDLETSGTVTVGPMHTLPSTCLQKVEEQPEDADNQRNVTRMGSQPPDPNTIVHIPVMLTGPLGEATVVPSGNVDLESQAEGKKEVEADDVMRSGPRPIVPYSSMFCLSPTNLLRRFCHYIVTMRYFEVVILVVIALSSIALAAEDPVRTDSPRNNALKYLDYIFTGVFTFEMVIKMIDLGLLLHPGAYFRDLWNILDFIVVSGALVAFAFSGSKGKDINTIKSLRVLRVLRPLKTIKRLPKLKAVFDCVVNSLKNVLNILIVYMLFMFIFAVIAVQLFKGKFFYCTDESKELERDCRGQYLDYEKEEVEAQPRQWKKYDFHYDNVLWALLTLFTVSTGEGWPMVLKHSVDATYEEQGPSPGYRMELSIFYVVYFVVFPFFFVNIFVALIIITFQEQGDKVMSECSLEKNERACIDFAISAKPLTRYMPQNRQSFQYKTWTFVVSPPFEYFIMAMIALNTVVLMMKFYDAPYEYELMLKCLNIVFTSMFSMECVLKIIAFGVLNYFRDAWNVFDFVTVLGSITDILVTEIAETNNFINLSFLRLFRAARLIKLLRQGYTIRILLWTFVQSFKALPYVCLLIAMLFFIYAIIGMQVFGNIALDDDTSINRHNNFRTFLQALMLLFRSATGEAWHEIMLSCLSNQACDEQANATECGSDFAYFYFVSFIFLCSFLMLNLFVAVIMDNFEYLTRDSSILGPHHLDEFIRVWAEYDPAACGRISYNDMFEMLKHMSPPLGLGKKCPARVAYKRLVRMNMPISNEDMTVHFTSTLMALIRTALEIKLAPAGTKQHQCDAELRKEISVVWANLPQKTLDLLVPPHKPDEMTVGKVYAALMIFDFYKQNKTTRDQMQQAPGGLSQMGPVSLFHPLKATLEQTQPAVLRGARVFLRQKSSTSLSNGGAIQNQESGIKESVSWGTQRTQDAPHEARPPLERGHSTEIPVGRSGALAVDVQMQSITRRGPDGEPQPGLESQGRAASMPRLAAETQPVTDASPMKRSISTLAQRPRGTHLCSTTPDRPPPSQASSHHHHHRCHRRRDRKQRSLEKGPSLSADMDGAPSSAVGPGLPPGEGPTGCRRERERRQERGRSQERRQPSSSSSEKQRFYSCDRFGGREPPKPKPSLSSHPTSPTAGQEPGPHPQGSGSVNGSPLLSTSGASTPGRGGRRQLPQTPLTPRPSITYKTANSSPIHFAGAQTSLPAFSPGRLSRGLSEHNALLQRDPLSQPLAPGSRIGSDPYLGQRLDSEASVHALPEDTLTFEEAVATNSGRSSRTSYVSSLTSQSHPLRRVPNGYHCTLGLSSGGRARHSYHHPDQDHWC
T1 sequence (Q02410 whole entry): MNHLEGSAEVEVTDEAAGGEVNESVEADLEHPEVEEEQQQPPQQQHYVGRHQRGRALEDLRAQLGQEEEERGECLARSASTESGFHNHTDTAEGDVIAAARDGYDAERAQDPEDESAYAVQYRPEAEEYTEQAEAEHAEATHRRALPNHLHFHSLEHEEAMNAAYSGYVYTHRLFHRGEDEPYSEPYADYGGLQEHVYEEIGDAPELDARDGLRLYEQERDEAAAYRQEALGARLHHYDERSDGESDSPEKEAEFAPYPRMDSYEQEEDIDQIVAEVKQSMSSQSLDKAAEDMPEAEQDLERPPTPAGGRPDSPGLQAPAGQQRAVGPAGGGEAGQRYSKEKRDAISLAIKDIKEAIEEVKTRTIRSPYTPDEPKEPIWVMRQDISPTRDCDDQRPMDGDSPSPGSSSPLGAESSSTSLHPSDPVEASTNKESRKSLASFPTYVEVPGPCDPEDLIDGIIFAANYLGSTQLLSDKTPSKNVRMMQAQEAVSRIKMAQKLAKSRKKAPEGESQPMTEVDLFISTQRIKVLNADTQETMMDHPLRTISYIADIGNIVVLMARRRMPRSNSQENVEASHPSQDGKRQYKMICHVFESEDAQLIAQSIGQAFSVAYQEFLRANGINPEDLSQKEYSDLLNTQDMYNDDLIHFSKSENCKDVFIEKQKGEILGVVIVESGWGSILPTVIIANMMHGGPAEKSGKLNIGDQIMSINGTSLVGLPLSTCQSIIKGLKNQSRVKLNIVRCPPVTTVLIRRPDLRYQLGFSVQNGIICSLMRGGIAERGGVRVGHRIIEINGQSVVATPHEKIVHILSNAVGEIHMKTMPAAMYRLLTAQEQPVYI

[2] = target: T1, Voltage-gated N-type calcium channel alpha-1B subunit/Amyloid beta A4 precursor protein-binding family A member 1; experiment: disruptors of Mint-PDZ/N-type channel peptide interaction – biochemical, HTRF, SAR follow-up (AID 2489); type: functional
[3] = NIH-3T3 fibroblast cytotoxicity, dose response, cytotoxicity control, cell-based, fluorescence, Alamar Blue, secondary assay (AID 2327); type: functional;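 note: NIH-3T3 mouse fibroblasts cultured with fluconazole at 8 µg/mL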
[4] = system: Streptococcus sp. 'group A'; experiment: growth inhibition of control SK(-) GAS strain, dose response, counter-screen for streptokinase expression inhibitor project, luminescence, kanamycin, BacTiterGlo, confirmation (AID 1900); type: functional, organism-based
[5] = C. albicans growth with fluconazole, confirmation, fluorescence, retest (AID 2467); type: functional, cell-based
[6] = inhibitors of intracellular T. cruzi replication, confirmation, NIH3T3 host cells, beta-gal luminescence (AID 2044); type: functional, cell-based;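 note: intracellular parasites grown in NIH/3T3 mouse fibroblasts as host cells; luminescent beta-galactosidase reporter signal from transgenic T. cruzi replicating inside host cells; inhibitors lower the luminescence signal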
[7] = target: T2, Serine/threonine-protein phosphatase (Candida dubliniensis (strain CD36 / CBS 7987 / NCPF 3949 / NRRLY-17841) (Yeast), UniProt B9W6M3); experiment: calcineurin pathway inhibitors in yeast reporter, dose response, S. cerevisiae, CDRE-lacZ, luminescence, secondary (AID 2388); type: functional, cell-based;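 note: yeast reporter cells carrying a calcineurin-responsive lacZ construct stimulated with calcium chloride; luminescent beta-galactosidase reporter signal in whole cells rather than isolated phosphatase activity; potency for inhibition where a drop in reporter signal means calcineurin blockade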
T2 sequence (B9W6M3 whole entry): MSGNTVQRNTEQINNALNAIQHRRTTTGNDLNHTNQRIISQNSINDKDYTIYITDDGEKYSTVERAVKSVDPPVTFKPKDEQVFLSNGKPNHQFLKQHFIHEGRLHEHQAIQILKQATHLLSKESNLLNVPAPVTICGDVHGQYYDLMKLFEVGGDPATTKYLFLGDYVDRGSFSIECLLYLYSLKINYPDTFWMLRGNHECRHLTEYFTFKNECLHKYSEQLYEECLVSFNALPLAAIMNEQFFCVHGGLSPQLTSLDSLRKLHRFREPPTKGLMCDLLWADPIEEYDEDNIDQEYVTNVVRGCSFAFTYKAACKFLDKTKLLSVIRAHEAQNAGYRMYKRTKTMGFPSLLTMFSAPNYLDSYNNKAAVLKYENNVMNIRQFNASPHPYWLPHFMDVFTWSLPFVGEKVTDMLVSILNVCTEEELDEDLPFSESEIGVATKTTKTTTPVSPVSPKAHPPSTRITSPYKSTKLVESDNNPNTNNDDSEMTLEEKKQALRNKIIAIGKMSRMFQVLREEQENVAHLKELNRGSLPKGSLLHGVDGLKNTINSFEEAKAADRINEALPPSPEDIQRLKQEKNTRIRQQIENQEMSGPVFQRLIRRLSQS

[8] = target: T3, Kappa-type opioid receptor (Homo sapiens, UniProt P41145); type: functional
T3 sequence (P41145 whole entry): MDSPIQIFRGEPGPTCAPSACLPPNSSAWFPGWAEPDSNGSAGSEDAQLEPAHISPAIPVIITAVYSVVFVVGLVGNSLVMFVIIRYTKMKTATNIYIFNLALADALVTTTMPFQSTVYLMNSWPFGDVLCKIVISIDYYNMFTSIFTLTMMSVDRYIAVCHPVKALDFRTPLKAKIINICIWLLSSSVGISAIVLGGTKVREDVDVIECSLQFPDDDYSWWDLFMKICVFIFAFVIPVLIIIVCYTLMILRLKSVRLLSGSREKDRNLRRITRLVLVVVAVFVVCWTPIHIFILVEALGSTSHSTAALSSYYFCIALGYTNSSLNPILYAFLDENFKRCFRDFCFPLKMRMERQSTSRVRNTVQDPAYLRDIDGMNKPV

[9] = cytotoxicity toward NIH3T3 fibroblasts, dose response, counter-screen, cell-based, ATP luminescence, mouse fibroblasts (AID 2010); type: functional;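 note: cells exposed to compound for about 90 hours before reading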
Beta-galactosidase = Beta-galactosidase (Escherichia coli, UniProt Q8VNN2); type: functional
[10] = target: T3, Kappa-type opioid receptor; type: functional; remark: listed apart in the source
Streptococcus = experiment: Group A Streptococcus viability loss, dose response, counter-screen for streptokinase expression inhibitor project, luminescence, BacTiterGlo (AID 1915); type: functional, organism-based;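 note: potency for reduction of bacterial viability or growth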
Exodeoxyribonuclease V = Exodeoxyribonuclease V (Escherichia coli (strain K12), UniProt P04993+P07648+P08394); experiment: E. coli RecBCD inhibitors, dose response, counter-screen for AddAB inhibitor project, absorbance, V66 E. coli, mutant T4 phage (AID 492957); type: functional, cell-based, Escherichia coli str. K-12 substr. MG1655
[11] = Counterscreen for AddAB inhibitors: absorbance-based bacterial cell-based high throughput dose response assay for inhibitors of bacterial viability. [Related pubchem assays (depositor defined):AID435030, AID449728, AID449731, AID488942, AID488955, AID488956]; type: functional
INS1 = experiment: beta cell apoptosis inhibitors, cytokine rescue, dose response, luminescence, retest (AID 449756); type: functional, cell-based; conditions: Rattus norvegicus;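 note: cell death triggered by IL-1 beta plus TNF-alpha plus IFN-gamma mixture; protective hits raise ATP signal compared with cytokine alone wells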
[12] = target: ATP-dependent molecular chaperone HSP82 (Candida albicans (strain WO-1) (Yeast), UniProt C4YTQ8); experiment: loss of DOC-induced GRE-beta-galactosidase reporter signal, dose response, Hsp90 inhibitor project, S. cerevisiae, luminescence (AID 2400); type: functional, cell-based;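 note: beta-galactosidase luminescence from glucocorticoid response element reporter as proxy for Hsp90 function; inhibitor potency where signal loss means Hsp90 inhibition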
Coagulation factor XII = target: T4, Coagulation factor XII (Homo sapiens, UniProt P00748); type: functional;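 note: activated factor XIIa alpha cleaving a fluorogenic AMC peptide substrate; inhibitor potency from loss of enzyme activity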
T4 sequence (P00748 whole entry): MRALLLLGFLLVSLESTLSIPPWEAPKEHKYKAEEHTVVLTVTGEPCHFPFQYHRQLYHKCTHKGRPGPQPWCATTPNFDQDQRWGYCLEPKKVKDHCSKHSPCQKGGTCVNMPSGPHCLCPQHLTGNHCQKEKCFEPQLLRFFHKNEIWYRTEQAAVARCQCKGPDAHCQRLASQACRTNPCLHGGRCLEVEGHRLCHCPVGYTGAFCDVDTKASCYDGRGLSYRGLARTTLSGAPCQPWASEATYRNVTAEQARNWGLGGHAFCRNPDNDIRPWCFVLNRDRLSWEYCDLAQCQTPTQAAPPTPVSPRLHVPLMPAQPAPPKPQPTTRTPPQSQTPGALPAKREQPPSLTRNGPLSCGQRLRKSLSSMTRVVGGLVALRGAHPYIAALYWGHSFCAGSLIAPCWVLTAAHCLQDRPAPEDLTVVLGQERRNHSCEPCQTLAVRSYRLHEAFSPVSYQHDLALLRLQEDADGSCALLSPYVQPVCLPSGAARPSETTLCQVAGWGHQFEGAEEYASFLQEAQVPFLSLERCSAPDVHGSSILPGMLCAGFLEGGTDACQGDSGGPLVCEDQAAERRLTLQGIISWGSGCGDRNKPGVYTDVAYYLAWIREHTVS

[13] = target: DNA dC->dU-editing enzyme APOBEC-3A (Homo sapiens, UniProt P31941); experiment: Dose Response confirmation of small molecule APOBEC3A DNA Deaminase Inhibitors via a fluorescence-based single-stranded DNA deaminase assay. [Related pubchem assays (depositor defined):AID493011, AID493024]; type: functional
DNA dC->dU-editing enzyme APOBEC-3A, sequence (P31941 whole entry): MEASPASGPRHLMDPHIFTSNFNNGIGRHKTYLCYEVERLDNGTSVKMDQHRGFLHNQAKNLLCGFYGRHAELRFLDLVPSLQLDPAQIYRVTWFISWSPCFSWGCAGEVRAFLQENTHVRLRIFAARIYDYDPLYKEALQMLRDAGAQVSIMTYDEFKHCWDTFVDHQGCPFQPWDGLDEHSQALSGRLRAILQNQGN

[14] = target: DNA dC->dU-editing enzyme APOBEC-3G (Homo sapiens, UniProt Q9HC16); type: functional;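 note: Dose-response counterscreen measuring inhibition of APOBEC3G DNA deaminase activity, run while confirming APOBEC3A inhibitors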

IC50 (SUMO E1/E2): 14.7 µM (active)
IC50 [1]: 11.1 µM (active)
IC50 [2]: 23 µM (active)
Compound: COc1ccc(CNC(=O)COC(=O)c2cc(-c3ccco3)nc3ccccc23)c(OC)c1

Compound: Oc1ccc(N=Nc2ccc3c(c2)OCCO3)c2ncccc12
EC50 [3]: > 150 µM (inconclusive)
EC50 [4]: 0.682 µM (active)
EC50 [5]: 0.872 µM (active)
EC50 [6]: 0.91 µM (active)
EC50 [7]: > 180 µM (inactive)
IC50 [8]: 4.93 µM (active)
EC50 [9]: 4.43 µM (active)
EC50 (Beta-galactosidase): 25.3 µM (active)
IC50 [10]: > 32 µM
EC50 (Streptococcus): 2.27 µM (active)
IC50 (Exodeoxyribonuclease V): > 119 µM (inactive)
IC50 [11]: > 119 µM (inactive)
AC50 (INS1): 2.32 µM (active)
EC50 [12]: 11.7 µM (active)

IC50 (SUMO E1/E2): 16 µM (active) and 56.7 µM (active)
IC50 [1]: 6.66 µM (active) and 12.5 µM (active)
Compound: COc1ccccc1NC(=O)COC(=O)c1cc(-c2ccco2)nc2ccccc12
IC50 [2]: 21.5 µM (active) and > 56.8 µM (inactive)

IC50 (Coagulation factor XII): > 50 µM (inactive)
Compound: COC(=O)/C(=C/Nc1ccccc1)[N+](=O)[O-]

Compound: CCCC[N@+]12CC[C@H](CC1)C(=C(c1ccccc1)c1ccccc1)C2
IC50 [13]: 2.16 µM (active)
IC50 [14]: 2.19 µM (active)

From ChEMBL document CHEMBL1201862, “PubChem BioAssay data set” (2004)
